{"source": "paper PMC7093416", "about": "“Selective USP7 inhibition elicits cancer cell killing through a p53-dependent mechanism” (Scientific Reports, 2020)", "test_system": "panel of 484 cancer cell lines", "assay": "PRISM cancer cell line profiling, 5 days", "assay_type": "cell-based", "design": "AUC: unit not given beside the values", "procedure": "Cancer cell line profiling was performed using the Broad’s PRISM platform. Cell treatment and data analysis were performed as described in Yu et al[42]. Raw Luminex signal was converted to AUC values for each cell line as described. The resulting AUC profile for each compound was modeled against DepMap using the limma package in R[71]. Because hotspot mutation analysis was performed against DepMap, TP53 annotations in Fig. 6c,d are directly from DepMap.", "data": [{"smiles": "CN1CCN(CCC(=O)Nc2ccc3c(=O)n(CC4(O)CCN(C(=O)[C@@H](CCCNC(=O)c5ccc6c(Cl)c7c(nc6c5)CCCC7)Cc5ccccc5)CC4)cnc3c2)CC1", "note": "[XL177A]", "values": [{"measurement": "AUC", "setting": "RVH421_SKIN", "result": 0.7933}, {"measurement": "AUC", "setting": "S117_SOFT_TISSUE", "result": 0.8952}, {"measurement": "AUC", "setting": "SBC5_LUNG", "result": 1.121}, {"measurement": "AUC", "setting": "SCABER_URINARY_TRACT", "result": 0.8461}, {"measurement": "AUC", "setting": "SCC25_UPPER_AERODIGESTIVE_TRACT", "result": 0.7649}, {"measurement": "AUC", "setting": "SF126_CENTRAL_NERVOUS_SYSTEM", "result": 1.059}, {"measurement": "AUC", "setting": "SF295_CENTRAL_NERVOUS_SYSTEM", "result": 1.367}, {"measurement": "AUC", "setting": "SF539_CENTRAL_NERVOUS_SYSTEM", "result": 0.7901}, {"measurement": "AUC", "setting": "SH4_SKIN", "result": 0.8355}, {"measurement": "AUC", "setting": "SH10TC_STOMACH", "result": 0.9409}, {"measurement": "AUC", "setting": "SIMA_AUTONOMIC_GANGLIA", "result": 1.153}, {"measurement": "AUC", "setting": "SJSA1_BONE", "result": 0.9454}, {"measurement": "AUC", "setting": "SKES1_BONE", "result": 1.123}, {"measurement": "AUC", "setting": "SKHEP1_LIVER", "result": 1.003}, {"measurement": "AUC", "setting": "SKLU1_LUNG", "result": 1.145}, {"measurement": "AUC", "setting": "SKMEL2_SKIN", "result": 1.16}, {"measurement": "AUC", "setting": "SKMEL3_SKIN", "result": 1.119}, {"measurement": "AUC", "setting": "SKMEL5_SKIN", "result": 1.147}, {"measurement": "AUC", "setting": "SKMEL24_SKIN", "result": 1.297}, {"measurement": "AUC", "setting": "SKMEL30_SKIN", "result": 0.992}, {"measurement": "AUC", "setting": "SKMES1_LUNG", "result": 0.9519}, {"measurement": "AUC", "setting": "SKNAS_AUTONOMIC_GANGLIA", "result": 1.0969}, {"measurement": "AUC", "setting": "SKNBE2_AUTONOMIC_GANGLIA", "result": 1.099}, {"measurement": "AUC", "setting": "SKOV3_OVARY", "result": 0.9025}, {"measurement": "AUC", "setting": "SKUT1_SOFT_TISSUE", "result": 1.15}, {"measurement": "AUC", "setting": "SNB75_CENTRAL_NERVOUS_SYSTEM", "result": 0.9344}, {"measurement": "AUC", "setting": "SNGM_ENDOMETRIUM", "result": 1.144}, {"measurement": "AUC", "setting": "SNU46_UPPER_AERODIGESTIVE_TRACT", "result": 1.075}, {"measurement": "AUC", "setting": "SNU61_LARGE_INTESTINE", "result": 1.293}, {"measurement": "AUC", "setting": "SNU81_LARGE_INTESTINE", "result": 1.343}, {"measurement": "AUC", "setting": "SNU213_PANCREAS", "result": 0.7501}, {"measurement": "AUC", "setting": "SNU245_BILIARY_TRACT", "result": 1.4902}, {"measurement": "AUC", "setting": "SNU308_BILIARY_TRACT", "result": 1.159}, {"measurement": "AUC", "setting": "SNU398_LIVER", "result": 0.9557}, {"measurement": "AUC", "setting": "SNU407_LARGE_INTESTINE", "result": 0.9921}, {"measurement": "AUC", "setting": "SNU410_PANCREAS", "result": 1.104}, {"measurement": "AUC", "setting": "SNU423_LIVER", "result": 0.9049}, {"measurement": "AUC", "setting": "SNU449_LIVER", "result": 1.072}, {"measurement": "AUC", "setting": "SNU466_CENTRAL_NERVOUS_SYSTEM", "result": 0.6104}, {"measurement": "AUC", "setting": "SNU601_STOMACH", "result": 1.062}, {"measurement": "AUC", "setting": "SNU668_STOMACH", "result": 0.8134}, {"measurement": "AUC", "setting": "SNU685_ENDOMETRIUM", "result": 0.8198}, {"measurement": "AUC", "setting": "SNU719_STOMACH", "result": 0.6005}, {"measurement": "AUC", "setting": "SNU738_CENTRAL_NERVOUS_SYSTEM", "result": 0.9451}, {"measurement": "AUC", "setting": "SNU761_LIVER", "result": 1.358}, {"measurement": "AUC", "setting": "SNU840_OVARY", "result": 0.9553}, {"measurement": "AUC", "setting": "SNU869_BILIARY_TRACT", "result": 1.237}, {"measurement": "AUC", "setting": "SNU886_LIVER", "result": 1.085}, {"measurement": "AUC", "setting": "SNU1041_UPPER_AERODIGESTIVE_TRACT", "result": 1.036}, {"measurement": "AUC", "setting": "SNU1066_UPPER_AERODIGESTIVE_TRACT", "result": 1.434}, {"measurement": "AUC", "setting": "SNU1076_UPPER_AERODIGESTIVE_TRACT", "result": 1.032}, {"measurement": "AUC", "setting": "SNU1077_ENDOMETRIUM", "result": 1.075}, {"measurement": "AUC", "setting": "SNU1079_BILIARY_TRACT", "result": 1.101}, {"measurement": "AUC", "setting": "SNU1105_CENTRAL_NERVOUS_SYSTEM", "result": 1.015}, {"measurement": "AUC", "setting": "SNU1196_BILIARY_TRACT", "result": 1.095}, {"measurement": "AUC", "setting": "SNU1214_UPPER_AERODIGESTIVE_TRACT", "result": 0.7181}, {"measurement": "AUC", "setting": "SNUC2A_LARGE_INTESTINE", "result": 1.088}, {"measurement": "AUC", "setting": "SNUC4_LARGE_INTESTINE", "result": 1.036}, {"measurement": "AUC", "setting": "SNUC5_LARGE_INTESTINE", "result": 1.147}, {"measurement": "AUC", "setting": "SQ1_LUNG", "result": 0.9875}, {"measurement": "AUC", "setting": "SUIT2_PANCREAS", "result": 0.9816}, {"measurement": "AUC", "setting": "SW480_LARGE_INTESTINE", "result": 1.095}, {"measurement": "AUC", "setting": "SW579_THYROID", "result": 0.8837}, {"measurement": "AUC", "setting": "SW620_LARGE_INTESTINE", "result": 1.161}, {"measurement": "AUC", "setting": "SW780_URINARY_TRACT", "result": 0.8743}, {"measurement": "AUC", "setting": "SW837_LARGE_INTESTINE", "result": 1.139}, {"measurement": "AUC", "setting": "SW900_LUNG", "result": 1.083}, {"measurement": "AUC", "setting": "SW948_LARGE_INTESTINE", "result": 1.148}, {"measurement": "AUC", "setting": "SW1088_CENTRAL_NERVOUS_SYSTEM", "result": 1.163}, {"measurement": "AUC", "setting": "SW1271_LUNG", "result": 1.0015}, {"measurement": "AUC", "setting": "SW1353_BONE", "result": 0.7826}, {"measurement": "AUC", "setting": "SW1573_LUNG", "result": 1.097}, {"measurement": "AUC", "setting": "SW1710_URINARY_TRACT", "result": 0.9553}, {"measurement": "AUC", "setting": "SW1990_PANCREAS", "result": 0.9791}, {"measurement": "AUC", "setting": "T3M10_LUNG", "result": 1.003}, {"measurement": "AUC", "setting": "T24_URINARY_TRACT", "result": 1.033}, {"measurement": "AUC", "setting": "T47D_BREAST", "result": 1.05}, {"measurement": "AUC", "setting": "T98G_CENTRAL_NERVOUS_SYSTEM", "result": 0.9138}, {"measurement": "AUC", "setting": "TCCPAN2_PANCREAS", "result": 1.167}, {"measurement": "AUC", "setting": "TCCSUP_URINARY_TRACT", "result": 1.301}, {"measurement": "AUC", "setting": "TE1_OESOPHAGUS", "result": 1.2696}, {"measurement": "AUC", "setting": "TE4_OESOPHAGUS", "result": 1.044}, {"measurement": "AUC", "setting": "TE5_OESOPHAGUS", "result": 0.9519}, {"measurement": "AUC", "setting": "TE6_OESOPHAGUS", "result": 0.8165}, {"measurement": "AUC", "setting": "TE8_OESOPHAGUS", "result": 1.003}, {"measurement": "AUC", "setting": "TE9_OESOPHAGUS", "result": 1.141}, {"measurement": "AUC", "setting": "TE10_OESOPHAGUS", "result": 0.9335}, {"measurement": "AUC", "setting": "TE11_OESOPHAGUS", "result": 1.05}, {"measurement": "AUC", "setting": "TEN_ENDOMETRIUM", "result": 0.8216}, {"measurement": "AUC", "setting": "TM31_CENTRAL_NERVOUS_SYSTEM", "result": 1.2102}, {"measurement": "AUC", "setting": "TM87_SOFT_TISSUE", "result": 1.188}, {"measurement": "AUC", "setting": "TOV21G_OVARY", "result": 0.5189}, {"measurement": "AUC", "setting": "TOV112D_OVARY", "result": 1.085}, {"measurement": "mean diff. between TP53 functional WT and functional mutant populations (AUC)", "setting": "TP53 annotation by functional scores of Giacomelli et al.", "result": "0.072 ± 0.016"}, {"measurement": "AUC", "setting": "TT2609C02_THYROID", "result": 0.9464}, {"measurement": "AUC", "setting": "TT_OESOPHAGUS", "result": 1.06}, {"measurement": "AUC", "setting": "TT_THYROID", "result": 0.8609}, {"measurement": "AUC", "setting": "TUHR4TKB_KIDNEY", "result": 1.102}, {"measurement": "AUC", "setting": "U2OS_BONE", "result": 1.296}, {"measurement": "AUC", "setting": "U118MG_CENTRAL_NERVOUS_SYSTEM", "result": 1.069}, {"measurement": "AUC", "setting": "U251MG_CENTRAL_NERVOUS_SYSTEM", "result": 0.9403}, {"measurement": "AUC", "setting": "UACC62_SKIN", "result": 0.9957}, {"measurement": "AUC", "setting": "UACC257_SKIN", "result": 0.801}, {"measurement": "AUC", "setting": "UBLC1_URINARY_TRACT", "result": 0.854}, {"measurement": "AUC", "setting": "UMUC1_URINARY_TRACT", "result": 0.8933}, {"measurement": "AUC", "setting": "UO31_KIDNEY", "result": 1.106}, {"measurement": "AUC", "setting": "VMCUB1_URINARY_TRACT", "result": 0.9786}, {"measurement": "AUC", "setting": "VMRCRCW_KIDNEY", "result": 1.013}, {"measurement": "AUC", "setting": "VMRCRCZ_KIDNEY", "result": 1.099}, {"measurement": "AUC", "setting": "WM88_SKIN", "result": 1.176}, {"measurement": "AUC", "setting": "WM793_SKIN", "result": 1.125}, {"measurement": "AUC", "setting": "WM983B_SKIN", "result": 1.093}, {"measurement": "AUC", "setting": "WM1799_SKIN", "result": 0.5219}, {"measurement": "AUC", "setting": "WM2664_SKIN", "result": 0.9262}, {"measurement": "AUC", "setting": "YAPC_PANCREAS", "result": 1.218}, {"measurement": "AUC", "setting": "YD8_UPPER_AERODIGESTIVE_TRACT", "result": 0.881}, {"measurement": "AUC", "setting": "YD10B_UPPER_AERODIGESTIVE_TRACT", "result": 0.9499}, {"measurement": "AUC", "setting": "YD15_SALIVARY_GLAND", "result": 0.7713}, {"measurement": "AUC", "setting": "YD38_UPPER_AERODIGESTIVE_TRACT", "result": 0.8781}, {"measurement": "AUC", "setting": "YH13_CENTRAL_NERVOUS_SYSTEM", "result": 0.9484}, {"measurement": "AUC", "setting": "YKG1_CENTRAL_NERVOUS_SYSTEM", "result": 0.9563}, {"measurement": "AUC", "setting": "ZR751_BREAST", "result": 0.7595}]}]}
